System: LXRα and/or LXRβ
Assay: LXR/LXRE co-transfection assay (luciferase reporter, CV-1 cells)
Format: cell-based, human
Conditions: IC50 or EC50 for LXR (LXRα and/or LXRβ, not distinguished), tested as described in Example 109, CV-1 cells
How it was run: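 Transient co-transfection of CV-1 cells with full-length human LXRα or LXRβ plus RXRα expression plasmids and an LXREx1-Tk-luciferase reporter; compounds (10 μM screen, ≤1% DMSO) incubated 20 h at 37 °C. Luminescence read after lysis; EC50/IC50 from 8-point half-log curves, efficacy relative to a high control or DMSO.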

Row | Structure (SMILES) | EC50
1 | Cc1cc(-c2cccc(S(C)(=O)=O)c2)ccc1-c1c(Cl)c(C(C)(C)O)nn1-c1cnccc1C(F)(F)F [Example 107, 2-(4-chloro-5-(3-methyl-3′-(methylsulfonyl)biphenyl-4-yl)-1-(4-(trifluoromethyl)pyridin-3-yl)-1H-pyrazol-3-yl)propan-2-ol] | < 1000 nM
2 | CC(C)c1ccccc1-n1nc(C(C)(C)O)cc1-c1ccc(-c2cccc(S(C)(=O)=O)c2)s1 [Example 1345, 2-(1-[2-(1-methylethyl)phenyl]-5-{5-[3-(methylsulfonyl)phenyl]-2-thienyl}-1H-pyrazol-3-yl)propan-2-ol] | < 1000 nM
3 | CC(C)(O)c1cc(-c2c(F)cccc2Cl)n(-c2ccc(-c3cccc(S(C)(=O)=O)c3)cc2F)n1 [Example 120, 2-(5-(2-chloro-6-fluorophenyl)-1-(3-fluoro-3′-(methylsulfonyl)biphenyl-4-yl)-1H-pyrazol-3-yl)propan-2-ol] | < 1000 nM
4 | CCC(=O)c1cc(-c2ccc(-c3cccc(S(C)(=O)=O)c3)s2)n(-c2ccccc2Cl)n1 [Example 1173, 1-[1-(2-chlorophenyl)-5-{5-[3-(methylsulfonyl)phenyl]-2-thienyl}-1H-pyrazol-3-yl]propan-1-one] | < 1000 nM
5 | CS(=O)(=O)c1cc(-c2ccc(-c3cc(C(F)(F)F)nn3-c3cc(Cl)ccc3Cl)s2)ccc1OCCc1nnn[nH]1 [Example 1260, 5-(2-{[4-{5-[1-(2,5-dichlorophenyl)-3-(trifluoromethyl)-1H-pyrazol-5-yl]-2-thienyl}-2-(methylsulfonyl)phenyl]oxy}ethyl)-1H-tetrazole] | 1000 to 10000 nM
6 | CC(C)(O)c1cccc(-n2nc(C(C)(C)O)cc2-c2ccc(-c3cccc(S(C)(=O)=O)c3)s2)c1 [Example 1226, 2-{3-[3-(1-hydroxy-1-methylethyl)-5-{5-[3-(methylsulfonyl)phenyl]-2-thienyl}-1H-pyrazol-1-yl]phenyl}propan-2-ol] | 1000 to 10000 nM
7 | O=C(NCCN1CCOCC1)c1ccc(-c2cc(C(F)(F)F)nn2-c2ccccc2Cl)cc1 [Example 970, 4-[1-(2-chlorophenyl)-3-(trifluoromethyl)-1H-pyrazol-5-yl]-N-(2-morpholin-4-ylethyl)benzamide] | 1000 to 10000 nM

Other lines, results leading:

Row | EC50 | Structure (SMILES)
8 | 1000 to 10000 nM | CS(=O)(=O)c1cc(-c2ccc(-c3cc(C(F)(F)F)nn3-c3cc(Cl)ccc3Cl)s2)ccc1OCCO [Example 1255, 2-{[4-{5-[1-(2,5-dichlorophenyl)-3-(trifluoromethyl)-1H-pyrazol-5-yl]-2-thienyl}-2-(methylsulfonyl)phenyl]oxy}ethanol]
9 | < 1000 nM | CC(C)(C(=O)O)c1cccc(-c2ccc(-c3cc(C(F)(F)F)nn3Cc3ccc(Cl)s3)s2)c1 [Example 1166, 2-[3-(5-{1-[(5-chloro-2-thienyl)methyl]-3-(trifluoromethyl)-1H-pyrazol-5-yl}-2-thienyl)phenyl]-2-methylpropanoic acid]
10 | < 1000 nM | CC(C)(C(=O)O)c1cccc(-c2ccc(-c3cc(C(F)(F)F)nn3Cc3ccc(F)cc3F)s2)c1 [Example 1205, 2-[3-(5-{1-[(2,4-difluorophenyl)methyl]-3-(trifluoromethyl)-1H-pyrazol-5-yl}-2-thienyl)phenyl]-2-methylpropanoic acid]
11 | 1000 to 10000 nM | O=C(O)CCNC(=O)c1ccc(-c2cc(C(F)(F)F)nn2-c2ccccc2Cl)cc1 [Example 1363, N-({4-[1-(2-chlorophenyl)-3-(trifluoromethyl)-1H-pyrazol-5-yl]phenyl}carbonyl)-beta-alanine]
12 | < 1000 nM | Cc1cccc(Cl)c1-n1nc(C(C)(C)O)cc1-c1ccc(-c2cccc(S(C)(=O)=O)c2)s1 [Example 1335, 2-[1-(2-chloro-6-methylphenyl)-5-{5-[3-(methylsulfonyl)phenyl]-2-thienyl}-1H-pyrazol-3-yl]propan-2-ol]
13 | 1000 to 10000 nM | CN1CCN(CCn2nc(C(F)(F)F)cc2-c2ccc(-c3cccc(S(C)(=O)=O)c3)cc2)CC1 [Example 1223, 1-methyl-4-(2-{5-[3′-(methylsulfonyl)biphenyl-4-yl]-3-(trifluoromethyl)-1H-pyrazol-1-yl}ethyl)piperazine]
14 | 1000 to 10000 nM | Cc1cc(CC(=O)O)ccc1-c1ccc(-c2cc(C(F)(F)F)nn2-c2ncccc2C(F)(F)F)s1 [Example 1155, [3-methyl-4-(5-{3-(trifluoromethyl)-1-[3-(trifluoromethyl)pyridin-2-yl]-1H-pyrazol-5-yl}-2-thienyl)phenyl]acetic acid]

— patent US8703805B2 (Exelixis Patent Company LLC, priority 2005, dated 2014)
